# Results taken from patent publication US20160311817A1, “HETEROARYL SULTAM DERIVATIVES AS RORc MODULATORS” (Genentech, Inc., priority 2014, published 2016).
# Target: T1, RORc ligand binding domain (Homo sapiens, UniProt P51449)
# T1 construct: host or cells: E. coli
# T1 sequence (P51449 269-508 limits assumed): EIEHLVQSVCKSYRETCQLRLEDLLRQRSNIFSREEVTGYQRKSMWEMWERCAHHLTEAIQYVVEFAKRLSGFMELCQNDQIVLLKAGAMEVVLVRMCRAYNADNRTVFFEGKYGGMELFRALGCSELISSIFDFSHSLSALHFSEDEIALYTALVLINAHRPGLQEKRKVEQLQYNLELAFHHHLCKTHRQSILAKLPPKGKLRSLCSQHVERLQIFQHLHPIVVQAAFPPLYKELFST
# Test: In Vitro RORc Ligand Binding Assay
# Conditions: radioligand 25-[3H]hydroxycholesterol 6 nM; 0.6 ug/mL RORc receptor; 3 h at 25° C.
# Protocol: In Vitro RORc Ligand Binding Assay
# This assay was used to determine a compound's potency in inhibiting activity of RORc by determining, Kiapp, IC50, or percent inhibition values.
# On day of the assay, 100 uL of 0.05% CHAPS (in deionized H2O) was added to all wells of the GFB Unifilter plate and allowed soak for 1 h. A wash buffer of 50 mM HEPES (pH 7.4), 150 mM NaCl, and 5 mM MgCl2 was prepared to wash the filter plate. To prepare an assay buffer, BSA was added to the wash buffer to reach 0.01% and DTT was added to reach 1 mM.
# For IC50 mode, 10 mM compound stocks were serially diluted in DMSO with DMSO to give 20× required final concentration in DMSO (15 uL compound+30 uL DMSO). The 20× compound stocks were diluted in DMSO with Assay Buffer 4-fold to reach 5× the final test concentration in 25% DMSO (10 uL compound+30 uL Assay Buffer). Solutions were mixed by aspiration several times with a pipette set on 50 uL volume. For the assay, 10 uL of 5× compound stock solutions in 25% DMSO were added to the assay plate in duplicate.
# For two point screening, 10 mM stock compound solutions were diluted in DMSO to obtain 200 uM (20× the high test concentration) and then diluted 10-fold further to reach 20 uM (20× the low test concentration). The 20× stocks were diluted 4-fold with Assay Buffer (10 uL compound+30 uL Assay Buffer) to reach 5× the test concentrations (50 uM and 5 uM) and 10 uL were added to two assay plates for the duplicate wells. With each concentration tested on 2 plates, each set of 80 compounds used 4 assay plates (1 uM and 10 uM, with n=2).
# 25-hydroxycholesterol (1 uM) was used to determine the level of NSB signal is prepared in DMSO as for compounds above, then diluted in Assay Buffer to give a final concentration of 5 uM. For 25-hydroxycholesterol in 25% DMSO/75% Assay Buffer; 10 uL per well was used for NSB samples. Wells for Total Binding and No Receptor sample determination contained 10 uL of 25% DMSO/75% Assay Buffer per well.
# 25-[^3H]hydroxycholesterol was dilute in Assay Buffer to obtain 15 nM and vortex to mix. Add 20 uL to all wells to reach 6 nM final in the assay.
# Stock receptor solution was diluted in assay buffer to obtain 1.5 ug/mL in Assay Buffer. 20 uL was added to all wells. For No R samples, 20 uL Assay Buffer was substituted for receptor solution.
# Assay plates were 96-well polypropylene V-bottom plates. 10 uL of 5× compound in 25% DMSO/75% Assay Buffer was added to Test wells. 10 uL of 25% DMSO/75% Assay Buffer was added to Total Binding or No Receptor wells. 10 uL of 5 uM 25-hydroxycholesterol in 25% DMSO/75% Assay Buffer was added to NSB wells. 20 uL of 15 nM 25-[^3H]hydroxycholesterol prepared in Assay Buffer was added to all wells. 20 uL of 1.5 ug/mL RORc receptor was added to wells (or […] Assay Buffer to No R wells). Following addition to the wells, the plates were incubated 3 h at 25° C.
# Using a Packard Filtermate Harvester, the filter plate were washed 4 times following transfer of the incubated samples. Plates were dry-filtered completely (2 h at 50° C. or overnight at room temperature). 50 uL Microscint 0 was added to all wells and read on Topcount protocol Inverted.
# Final concentrations were as follows: 50 mM HEPES buffer (pH 7.4); 150 mM NaCl; 1 mM DTT; 5 mM MgCl2, 0.01% BSA; 5% DMSO; 0.6 ug/mL RORc receptor; 6 nM 25-[^3H]hydroxycholesterol. For NSB wells, 1 uM 25-hydroxycholesterol was also present.
row,IC50 [nM],Compound
1,1000,"CC(=O)N1CCN(c2ccc(CN3[C@@H](C)CCC(c4ccncc4)S3(=O)=O)c(F)c2)CC1 (single isomer, unassigned) [Compound 8, 1-{4-[3-Fluoro-4-(3-methyl-1,1-dioxo-6-pyridin-4-yl-[1,2]thiazinan-2-ylmethyl)-phenyl]-piperazin-1-yl}-ethanone]"
2,18,"CC(=O)N1CCN(c2ccc(CN3[C@@H](C)CCC(c4cccs4)S3(=O)=O)c(F)c2)CC1 (single isomer, unassigned) [Compound 7, 1-{4-[3-Fluoro-4-(3-methyl-1,1-dioxo-6-thiophen-2-yl-[1,2]thiazinan-2-ylmethyl)-phenyl]-piperazin-1-yl}-ethanone]"
3,70,"CC1CCC(C2CCCCC2)S(=O)(=O)N1Cc1cc(F)c(N2CC3C(C2)C3n2cnnc2)cc1F (single isomer, unassigned) [Compound 2, 3-[4-(6-Cyclohexyl-3-methyl-1,1-dioxo-[1,2]thiazinan-2-ylmethyl)-2,5-difluoro-phenyl]-6-[1,2,4]triazol-4-yl-3-aza-bicyclo [3.1.0]hexane]"
4,825,"CC(=O)N1CCN(c2ccc(CN3[C@@H](C)CCC(c4ccccn4)S3(=O)=O)c(F)c2)CC1 (single isomer, unassigned) [Compound 17]"
5,792,"CC(=O)N1CCN(c2ccc(CN3[C@@H](C)CCC(c4ncccn4)S3(=O)=O)c(F)c2)CC1 (single isomer, unassigned) [Compound 9, 1-{4-[3-Fluoro-4-(3-methyl-1,1-dioxo-6-pyrimidin-2-yl-[1,2]thiazinan-2-ylmethyl)-phenyl]-piperazin-1-yl}-ethanone]"
6,292,"CC(=O)N1CCN(c2ccc(CN3[C@@H](C)CCC(c4ccccn4)S3(=O)=O)c(F)c2)CC1 (single isomer, unassigned) [Compound 16, 1-{4-[3-Fluoro-4-(3-methyl-1,1-dioxo-6-pyridin-2-yl-[1,2]thiazinan-2-ylmethyl)-phenyl]-piperazin-1-yl}-ethanone]"
7,601,"C[C@H]1CCCS(=O)(=O)N1Cc1cc(F)c(N2C[C@@H]3C(n4cnnc4)[C@@H]3C2)cc1F (stereo partly drawn) [Compound 22, (1S,5R,6S)-3-[2,5-Difluoro-4-((S)-3-methyl-1,1-dioxo-[1,2]thiazinan-2-ylmethyl)-phenyl]-6-[1,2,4]triazol-4-yl-3-aza-bicyclo [3.1.0]hexane]"
8,2200,"CC(=O)N1CCN(c2ccc(CN3[C@@H](C)CCC(c4ccncc4)S3(=O)=O)c(F)c2)CC1 (single isomer, unassigned) [Compound 11, 1-{4-[3-Fluoro-4-(3-methyl-1,1-dioxo-6-pyridin-4-yl-[1,2]thiazinan-2-ylmethyl)-phenyl]-piperazin-1-yl}-ethanone]"
9,123,"CC(=O)N1CCN(c2ccc(CN3[C@@H](C)CCC(c4ccsc4)S3(=O)=O)c(F)c2)CC1 (single isomer, unassigned) [Compound 13, 1-{4-[3-Fluoro-4-(3-methyl-1,1-dioxo-6-thiophen-3-yl-[1,2]thiazinan-2-ylmethyl)-phenyl]-piperazin-1-yl}-ethanone]"
10,43,"CC1CCC(C2CCCCC2)S(=O)(=O)N1Cc1cc(F)c(N2CC3C(C2)C3n2cnnc2)cc1F (single isomer, unassigned) [Compound 1, 3-[4-(6-Cyclohexyl-3-methyl-1,1-dioxo-[1,2]thiazinan-2-ylmethyl)-2,5-difluoro-phenyl]-6-[1,2,4]triazol-4-yl-3-aza-bicyclo [3.1.0]hexane]"
11,1100,"CC(=O)N1CCN(c2ccc(CN3[C@@H](C)CCC(c4ncccn4)S3(=O)=O)c(F)c2)CC1 (single isomer, unassigned) [Compound 10, 1-{4-[3-Fluoro-4-(3-methyl-1,1-dioxo-6-pyrimidin-2-yl-[1,2]thiazinan-2-ylmethyl)-phenyl]-piperazin-1-yl}-ethanone]"
12,4200,"CC(=O)N1CCN(c2ccc(CN3[C@@H](C)CCC(c4cccnc4)S3(=O)=O)c(F)c2)CC1 (single isomer, unassigned) [Compound 15, 1-{4-[3-Fluoro-4-(3-methyl-1,1-dioxo-6-pyridin-3-yl-[1,2]thiazinan-2-ylmethyl)-phenyl]-piperazin-1-yl}-ethanone]"
13,36,"CC(=O)N1CCN(c2ccc(CN3[C@@H](C)CCC(c4ccsc4)S3(=O)=O)c(F)c2)CC1 (single isomer, unassigned) [Compound 12, 1-{4-[3-Fluoro-4-(3-methyl-1,1-dioxo-6-thiophen-3-yl-[1,2]thiazinan-2-ylmethyl)-phenyl]-piperazin-1-yl}-ethanone]"
14,583,"CC1CC[C@H](C)N(Cc2cc(F)c(N3C[C@@H]4C(n5cnnc5)[C@@H]4C3)cc2F)S1(=O)=O (single isomer, unassigned) [Compound 6]"
15,870,"CC(=O)N1CCN(c2ccc(CN3[C@@H](C)CCC(c4cccnc4)S3(=O)=O)c(F)c2)CC1 (single isomer, unassigned) [Compound 14, 1-{4-[3-Fluoro-4-(3-methyl-1,1-dioxo-6-pyridin-3-yl-[1,2]thiazinan-2-ylmethyl)-phenyl]-piperazin-1-yl}-ethanone]"
16,74,"CC1CC[C@H](C)N(Cc2cc(F)c(N3C[C@@H]4C(n5cnnc5)[C@@H]4C3)cc2F)S1(=O)=O (single isomer, unassigned) [Compound 5]"
